From EP0573682A1, “Tea polyphenols as anti-hyperglycemic agents” (MITSUI NORIN CO., LTD., priority 1992, dated 1993) come the findings set out here.

The nature of one data set: Acute toxicity. The class given is in vivo, mice. The settings on record: mouse, in vivo, ip; administered intraperitonealy; 5 week old female ICR mice; read-out: LD₅₀ after one week. The method, then: (§1) (-)Epigallocatechin gallate was tested with respect to its acute toxicity. Where (-)epigallocatechin gallate was perorally administered to 6 week ICR male mice, LD₅₀ after one week was 2314mg/kg. Where (-)epigallocatechin was administered intraperitonealy to 5 week old female ICR mice, LD₅₀ after one week was 150mg/kg.

The test system of a further data set is ICR mice. Nature of the data set: Acute toxicity. The data set is classed as in vivo. The settings on record: perorally administered; 6 week ICR male mice; 10080 min. The method, then:
as §1

With `Oc1cc(O)c2c(c1)O[C@H](c1cc(O)c(O)c(O)c1)[C@H](O)C2` [(-)epigallocatechin, (-) Epigallocatechin], the LD50 at 168 h in the data set “Acute toxicity” turned out to be 150 mg/kg.

As to `O=C(O[C@@H]1Cc2c(O)cc(O)cc2O[C@@H]1c1cc(O)c(O)c(O)c1)c1cc(O)c(O)c(O)c1` [(-)epigallocatechin gallate, (-) Epigallocatechin gallate], the “LD₅₀ after one week” value with ICR mice came to 2314 mg/kg.
